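Where inhibition never reached the appropriate level, the endpoint shown equals the highest concentration tested. Otherwise, values were interpolated linearly from a five-concentration, 48-hour dose response in 96-well plates. TGI: concentration producing complete growth inhibition.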
How the values were obtained:
Test in all cases: inhibition of tumour cell growth, NCI panel, 48 h
A498 renal = test system: A498 renal
A549 NSCLC = test system: A549 NSCLC
CCRF-CEM leukemia = test system: CCRF-CEM leukemia
DMS 273 small cell lung = test system: DMS 273 small cell lung
EKVX NSCLC = test system: EKVX NSCLC
HCT-116 colon = test system: HCT-116 colon
HL-60(TB) leukemia = test system: HL-60(TB) leukemia
HOP-62 NSCLC = test system: HOP-62 NSCLC
HOP-92 NSCLC = test system: HOP-92 NSCLC
HT29 colon = test system: HT29 colon
IGROV1 ovarian = test system: IGROV1 ovarian
KM12 colon = test system: KM12 colon
M14 melanoma = test system: M14 melanoma
M19-MEL melanoma = test system: M19-MEL melanoma
MOLT-4 leukemia = test system: MOLT-4 leukemia
NCI-H226 lung = test system: NCI-H226 lung
NCI-H460 lung = test system: NCI-H460 lung
NCI-H522 lung = test system: NCI-H522 lung
OVCAR-5 ovarian = test system: OVCAR-5 ovarian
OVCAR-8 ovarian = test system: OVCAR-8 ovarian
RXF 393 renal = test system: RXF 393 renal
SF-268 CNS = test system: SF-268 CNS
SF-295 CNS = test system: SF-295 CNS
SK-MEL-28 melanoma = test system: SK-MEL-28 melanoma
SK-OV-3 ovarian = test system: SK-OV-3 ovarian
SNB-19 CNS = test system: SNB-19 CNS
SNB-78 CNS = test system: SNB-78 CNS
SR leukemia = test system: SR leukemia
TK-10 renal = test system: TK-10 renal
U251 CNS = test system: U251 CNS
UACC-257 melanoma = test system: UACC-257 melanoma
UACC-62 melanoma = test system: UACC-62 melanoma
UO-31 renal = test system: UO-31 renal
786-0 renal = test system: 786-0 renal
ACHN renal = test system: ACHN renal
BT-549 breast = test system: BT-549 breast
CAKI-1 renal = test system: CAKI-1 renal
COLO 205 colon = test system: COLO 205 colon
DU-145 prostate = test system: DU-145 prostate
HCC-2998 colon = test system: HCC-2998 colon
HCT-15 colon = test system: HCT-15 colon
HS 578T breast = test system: HS 578T breast
K-562 leukemia = test system: K-562 leukemia
LOX IMVI melanoma = test system: LOX IMVI melanoma
MALME-3M melanoma = test system: MALME-3M melanoma
MCF7 breast = test system: MCF7 breast
MDA-MB-231 breast = test system: MDA-MB-231 breast
MDA-MB-435 = test system: MDA-MB-435
MDA-N = test system: MDA-N
NCI-H23 lung = test system: NCI-H23 lung
NCI/ADR-RES ovarian = test system: NCI/ADR-RES ovarian
OVCAR-3 ovarian = test system: OVCAR-3 ovarian
OVCAR-4 ovarian = test system: OVCAR-4 ovarian
PC-3 prostate = test system: PC-3 prostate
SF-539 CNS = test system: SF-539 CNS
SK-MEL-2 melanoma = test system: SK-MEL-2 melanoma
SK-MEL-5 melanoma = test system: SK-MEL-5 melanoma
SN12C renal = test system: SN12C renal
SNB-75 CNS = test system: SNB-75 CNS
SW-620 colon = test system: SW-620 colon
T-47D breast = test system: T-47D breast

Compound: CCSc1c2ccccc2nc2c(OC)ccc(OC)c12
- TGI (A498 renal): 81.7 µM
- TGI (A549 NSCLC): > 100 µM
- TGI (CCRF-CEM leukemia): > 100 µM
- TGI (DMS 273 small cell lung): 47.9 µM
- TGI (EKVX NSCLC): > 100 µM
- TGI (HCT-116 colon): 37.9 µM
- TGI (HL-60(TB) leukemia): 52.9 µM
- TGI (HOP-62 NSCLC): 97.2 µM
- TGI (HOP-92 NSCLC): 56.5 µM
- TGI (HT29 colon): 63.4 µM
- TGI (IGROV1 ovarian): 63.4 µM
- TGI (KM12 colon): 63.5 µM
- TGI (M14 melanoma): 95.8 µM
- TGI (M19-MEL melanoma): 37.1 µM
- TGI (MOLT-4 leukemia): 73 µM
- TGI (NCI-H226 lung): 55.7 µM
- TGI (NCI-H460 lung): 41.7 µM
- TGI (NCI-H522 lung): > 100 µM
- TGI (OVCAR-5 ovarian): 97.1 µM
- TGI (OVCAR-8 ovarian): 44.9 µM
- TGI (RXF 393 renal): 33.2 µM
- TGI (SF-268 CNS): 55.6 µM
- TGI (SF-295 CNS): 66.2 µM
- TGI (SK-MEL-28 melanoma): 40 µM
- TGI (SK-OV-3 ovarian): 63.2 µM
- TGI (SNB-19 CNS): 72.4 µM
- TGI (SNB-78 CNS): 56.7 µM
- TGI (SR leukemia): 62.5 µM
- TGI (TK-10 renal): 85 µM
- TGI (U251 CNS): 44.9 µM
- TGI (UACC-257 melanoma): 42.8 µM
- TGI (UACC-62 melanoma): 37.9 µM
- TGI (UO-31 renal): 59.8 µM

Compound: O=S1(=O)N=C(SCc2c[nH]c3ccccc23)N(c2ccccc2)c2ccncc21
- TGI (786-0 renal): 65.5 µM
- TGI (A498 renal): 82.2 µM
- TGI (A549 NSCLC): > 100 µM
- TGI (ACHN renal): > 100 µM
- TGI (BT-549 breast): > 100 µM
- TGI (CAKI-1 renal): > 100 µM
- TGI (CCRF-CEM leukemia): > 100 µM
- TGI (COLO 205 colon): > 100 µM
- TGI (DU-145 prostate): > 100 µM
- TGI (EKVX NSCLC): > 100 µM
- TGI (HCC-2998 colon): > 100 µM
- TGI (HCT-116 colon): > 100 µM
- TGI (HCT-15 colon): > 100 µM
- TGI (HL-60(TB) leukemia): > 100 µM
- TGI (HOP-62 NSCLC): > 100 µM
- TGI (HOP-92 NSCLC): > 100 µM
- TGI (HS 578T breast): > 100 µM
- TGI (HT29 colon): > 100 µM
- TGI (K-562 leukemia): > 100 µM
- TGI (KM12 colon): > 100 µM
- TGI (LOX IMVI melanoma): > 100 µM
- TGI (M14 melanoma): > 100 µM
- TGI (MALME-3M melanoma): > 100 µM
- TGI (MCF7 breast): > 100 µM
- TGI (MDA-MB-231 breast): > 100 µM
- TGI (MDA-MB-435): > 100 µM
- TGI (MDA-N): > 100 µM
- TGI (MOLT-4 leukemia): > 100 µM
- TGI (NCI-H226 lung): > 100 µM
- TGI (NCI-H23 lung): > 100 µM
- TGI (NCI-H460 lung): > 100 µM
- TGI (NCI-H522 lung): > 100 µM
- TGI (NCI/ADR-RES ovarian): > 100 µM
- TGI (OVCAR-3 ovarian): > 100 µM
- TGI (OVCAR-4 ovarian): > 100 µM
- TGI (OVCAR-5 ovarian): > 100 µM
- TGI (OVCAR-8 ovarian): > 100 µM
- TGI (PC-3 prostate): > 100 µM
- TGI (SF-268 CNS): > 100 µM
- TGI (SF-295 CNS): > 100 µM
- TGI (SF-539 CNS): 80.5 µM
- TGI (SK-MEL-2 melanoma): > 100 µM
- TGI (SK-MEL-28 melanoma): > 100 µM
- TGI (SK-MEL-5 melanoma): > 100 µM
- TGI (SK-OV-3 ovarian): > 100 µM
- TGI (SN12C renal): > 100 µM
- TGI (SNB-19 CNS): > 100 µM
- TGI (SNB-75 CNS): 87.7 µM
- TGI (SR leukemia): > 100 µM
- TGI (SW-620 colon): > 100 µM
- TGI (T-47D breast): > 100 µM
- TGI (TK-10 renal): > 100 µM
- TGI (U251 CNS): > 100 µM
- TGI (UACC-257 melanoma): > 100 µM
- TGI (UACC-62 melanoma): > 100 µM
- TGI (UO-31 renal): 50 µM
